Assay results taken from patent US20080280945A1, “Crystalline forms of an HIV integrase inhibitor” (priority 2007, published 2008).
Values after ≈ are worked out from the molar mass of the structure shown.

Columns and labels:
[1] = solubility in water at 25° C. (ReactArray ST system, HPLC); assay type: physicochemical; conditions: for Solubility: equilibrated 24 h, average of last four hours, mean ± SE of 4 samples (amorphous: 1 sample); for Comment (form of excess solid): excess solid after solubility experiment
Experimental: The solubilities of crystalline ethanolate, crystalline hydrate and crystalline anhydrate were determined in water at 25° C. using a ReactArray ST™ system (Anachem, UK). Approximately 50 mg of material was transferred to a sample tube and 1.5 mL of water was added to it. The tubes were mounted on a temperature control block and the slurry was stirred at 400 rpm using a magnetic stir bar. The solution was equilibrated for 24 hours following which the concentration was monitored every hour for 6 hours.
HPLC conditions: column=C18 Bridge column (Waters Corporation), 4.6 mm×50 mm and 2.5 μm particle size; temperature=25° C., UV detection at λ=220 nm; flow rate=1 mL/minute; injection volume=5 μL; mobile phase=initial conditions at 20% acetonitrile and 80% 0.1% phosphate buffer with a gradient from 20% acetonitrile to 95% acetonitrile in 3 minutes, hold at 95% acetonitrile for 3 minutes, then from 95% to 20% acetonitrile in 0.1 minute (run time: 7 minutes), followed by 1 minute conditioning.

[2] = thermal stability studies, 2 weeks storage, HPLC and XRPD; assay type: physicochemical; conditions: for Loss at 40° C., 75% RH / Loss at 60° C., ambient RH: 2 weeks storage, HPLC, NLQ = no loss greater than the limit of quantitation
Experimental: One set of samples of the amorphous, crystalline ethanolate, crystalline hydrate, and crystalline anhydrate forms of Isomer M were stored in a GMP stability chamber at 40° C. and 75% relative humidity (RH) and another set of analogous samples was stored at 60° C. and ambient RH in a Vacuum Oven, NAPCO (National Appliance Company) Model 5831. The samples were analyzed by XRPD and by HPLC before and after 2 weeks storage. HPLC conditions: column=Symmetry Shield RP18 15 cm×4.6 mm (Waters Corporation) with 3.5 μm particle size; temperature=25° C., UV detection at λ=220 nm; flow rate=1 mL/minute; injection volume=10 μL; mobile phase=initial conditions at 20% acetonitrile and 80% 0.1% phosphate buffer with a gradient from 20% acetonitrile to 35% acetonitrile in 8 minutes, hold at 35% acetonitrile for 5 minutes, from 35% to 60% acetonitrile in 13 minutes, from 60% to 90% acetonitrile in 10 minutes (run time: 36 minutes, equilibration time: 10 minutes).

[3] = system: acute HIV infection of T-lymphoid cells; assay: inhibition of acute HIV infection of T-lymphoid cells (Vacca et al.); assay type: cell-based; conditions: n=6
[4] = after 2 weeks at 60° C., ambient RH

Solubility [1]	Comment (form of excess solid) [1]	Loss at 40° C., 75% RH [2]	Loss at 60° C., ambient RH [2]	XRPD (form change) [2, 4]	XRPD (form change) ([2]; after 2 weeks at 40° C., 75% RH)	Structure (SMILES)	IC95 ([3]; in the presence of 10% FBS)	IC95 ([3]; in the presence of 50% human serum)
0.071 (±0.002) mg/mL	Excess solid converts to hydrate	0.3 A %	11.5 A %	no detectable change	–	CN1C[C@H](O)C(C)(C)Cn2c(c3c(c(O)c2=O)C(=O)N(Cc2ccc(F)c(Cl)c2)CC3)C1=O [Crystalline ethanolate, M-(4R)-11-(3-chloro-4-fluorobenzyl)-4,9-dihydroxy-2,5,5-trimethyl-3,4,5,6,12,13-hexahydro-2H[1,4]diazocino[2,1-a]-2,6-naphthyridine-1,8,10(11H)-trione ethanolate]	–	–
–	–	–	–	–	–	CN1C[C@H](O)C(C)(C)Cn2c(c3c(c(O)c2=O)C(=O)N(Cc2ccc(F)c(Cl)c2)CC3)C1=O [Isomer M, M-(4R)-11-(3-chloro-4-fluorobenzyl)-4,9-dihydroxy-2,5,5-trimethyl-3,4,5,6,12,13-hexahydro-2H[1,4]diazocino[2,1-a]-2,6-naphthyridine-1,8,10(11H)-trione]	15.6±0 1M	51.7±16
0.124 (±0.010) mg/mL	Excess solid is anhydrate	NLQ	NLQ	no detectable change	no detectable change	CN1C[C@H](O)C(C)(C)Cn2c(c3c(c(O)c2=O)C(=O)N(Cc2ccc(F)c(Cl)c2)CC3)C1=O [Crystalline anhydrate, M-(4R)-11-(3-chloro-4-fluorobenzyl)-4,9-dihydroxy-2,5,5-trimethyl-3,4,5,6,12,13-hexahydro-2H[1,4]diazocino[2,1-a]-2,6-naphthyridine-1,8,10(11H)-trione anhydrate]	–	–
0.83 mg/mL (≈ 1740 µM)	Excess solid is amorphous	8.9 A %	–	–	–	CN1C[C@H](O)C(C)(C)Cn2c(c3c(c(O)c2=O)C(=O)N(Cc2ccc(F)c(Cl)c2)CC3)C1=O [Amorphous, M-(4R)-11-(3-chloro-4-fluorobenzyl)-4,9-dihydroxy-2,5,5-trimethyl-3,4,5,6,12,13-hexahydro-2H[1,4]diazocino[2,1-a]-2,6-naphthyridine-1,8,10(11H)-trione]	–	–
